Results from article PMC8097335, “A High‐Affinity Calmodulin‐Binding Site in the CyaA Toxin Translocation Domain is Essential for Invasion of Eukaryotic Cells” (Advanced Science, 2021).

Columns and labels:
calmodulin (CaM) = target: T1, calmodulin (CaM) (Homo sapiens, UniProt P0DP23); test: Peptide titrations by CaM followed by tryptophan fluorescence, and ITC (Kd for CaM); assay type: binding; conditions: for Kd: holo-CaM, from fluorescent titrations and ITC, 25 °C, average of at least three independent replicates; for Kd / ∆GKd for CaM: S.D. within ± 10%; for ∆GKd for CaM: ΔGKd = RTln(Kd)
T1 construct: made in house; host or cells: E. coli
From the text: peptides by CaM and is expressed as follows: 𝐾𝐾 𝑑𝑑 = [𝑃𝑃 ]∗[𝐶𝐶𝐶𝐶𝐶𝐶 ][𝑃𝑃:𝐶𝐶𝐶𝐶𝐶𝐶] , given 𝐾𝐾𝑑𝑑[𝐶𝐶𝐶𝐶𝐶𝐶]= [𝑃𝑃 ][𝑃𝑃 :𝐶𝐶𝐶𝐶𝐶𝐶]and the fraction of complex, fP:CaM, i s: 𝑓𝑓𝑃𝑃:𝐶𝐶𝐶𝐶𝐶𝐶 = [𝑃𝑃 :𝐶𝐶𝐶𝐶𝐶𝐶 ][𝑃𝑃:𝐶𝐶𝐶𝐶𝐶𝐶]+[𝑃𝑃]= 11+ [𝑃𝑃 ]= 11+ 𝐾𝐾𝑑𝑑.

[1] = Peptide titrations by SUVs followed by tryptophan fluorescence (solution-to-membrane partition); assay type: physicochemical; conditions: for Partition coefficient KX: POPC:POPG 8:2 SUVs, buffer A pH 7.4, 25 °C, tryptophan fluorescence ratio 330/370 nm; for Partition coefficient KX / ∆GKx for POPC POPG 8:2: S.D. within ± 10%; for Kd: converted from KX: [W]/KX = Kd, [W] = 55.5 M, read-out: Kd for POPC:POPG 8:2; for ∆GKx for POPC POPG 8:2: ∆GKx = -RT Ln Kx
Experimental: Lipid vesicles preparation
Small unilamellar vesicles (SUVs) and large unilamellar vesicles (LUVs) were prepared with POPC and POPG at a molar ratio of 8:2, at a lipid concentration of 10 mM in buffer A, as previously described 1. Briefly, SUVs and LUVs were prepared by reverse phase evaporation and filtered through polycarbonate filters of 1 μm and 0.2 μm of pore size diameter to obtain L UV. SUVs were further sonicated. The hydrodynamic diameters and mean net charge of the vesicles were measured by dynamic light scattering (DLS) and electrophoretic mobility, respectively, using a ZetaSizer NanoZS (Malvern Pananalytical , Orsay, France) 11.
Peptide titrations bySUV s and CaM followed by tryptophan fluorescence
Titrations were carried out with a FP-8200 Jasco spectrofluorimeter, equipped with a Pelt ie r - thermostated ETC-272T at 25°C. A bandwidth of 5 nm was used for both excitation and […]
(Hellma, France) with constant stirring. Fluorescence emission was recorded between 300 and […]
400 nm at a scan rate of 100 nm/min, with an excitation wavelength of 280 nm. Fluorescence emission spectra were corrected for SUV or CaM baselines . Fluorescence intensity ratio at 330 nm over 370 nm was use d to measure the partition coefficient (K X) of peptides between the solution andmembrane s 1, 12 and the affinity (K d) of peptides for CaM 13.
Determination of partition coefficient KX and dissociation constant Kd from […]
The partition coefficient KX is defined as the ratio of protein in the lipid (PL) and in buffer […]
(PW) pha se s 12, 14, expressed by: KKXX = [LL ]? , giving[PPWW ] [PPWW ]= [WW], where [W] the […]
concentration of water (55.5 M) and [L] the lipid concentration.
The fraction of peptide partitioned into the membrane, fPL, is equal to:
ffPPLL = [PPLL ][PPTT ]= [PPLL ][PPLL ]+[PPWW ]= 11+([PPWW ])= 11+( [WW]), where PT is the total concentration of peptides [PP TT ]= [PP LL ]+ [PP WW ]. […]
The equations a re fitted to the experimental data using the KaleidaGraph software, providing the KX and K d value s. The partition coefficient is related to the apparent dissociation constant:
KKXX × KKdd = [WW ] and to the free energy of partition ΔG Kx = -RTln(K X), where ΔG is the free energy in kcal/mol, R the gas constant (R = 1.98 x 10-3 kcal/mol/K) and T the temperature i n Kelvin. The free energy of peptide CaM interaction, ∆G Kd, is given by ΔG Kd = RTln(K d).
Sedimentation velocity-Analytical ultracentrifugation (SV -AUC) […]
ratio 1:1 (at 70 µM each). Samples were incubated 2h at 20°C in the ultracentrifuge and, then span at 42,000 rpm in an An-50 Ti rotor. […]

[2] = Membrane permeabilization of ANTS/DPX-loaded LUVs; conditions: ANTS:DPX LUVs POPC:POPG 8:2, 0.45 mM lipid, buffer A pH 7.4, 25 °C, ex 390/em 515 nm; S.D. ± 5%
Experimental: To monitor membrane permeabilization induced by peptides, ANTS (fluorophore probe) and
DPX (quencher) were encapsulated into large unilamellar vesicles (LUVs). The LUVs were
prepared at a concentration of 10 mM lipid at a POPC:PO PG molar ratio of 8:2 containing 20
mM ANTS and 60 mM DPX. The multilamellar vesicle suspension was extrudedthrough 0.4-
and 0.2 μm polycarbonate filters to produce LUVs. The unencapsulated ANT S a nd DPX we re
removed by gel filtration with a 5 mL Sephadex G -25 column (GE Healthcare Life Sciences ).
For permeabilization assays, LUVs were incubated in buffer A at 0.45 mM lipid
concentration at 25°C in a 101-QS cuvette (Hellma, France) and under constant stirring.
excitation wavelength was set at 390 nm and the emission of ANTS was continuously
measured at 515 nm. The maximum intensity of permeabilization, corresponding to the
maximum recovery of ANTS fluorescence, was measured after addition of 0.1% of Triton
X100. The concentration of membrane-bound peptide s required to induce the recovery of half
intensity of the ANTS fluorescence (C P1/2) was extracted from the permeabilization intensity
a s a function of peptide concentration 1.
LUVs were incubated in buffer B at a lipid concentration of 0.45 mM.
After a few seconds of permeabilization,
holo-Ca M wa s added t o t he solution at a peptide:Ca M molar ratio of 1:3. EDT A wa s
subsequently added in excess to chelate calcium and convert holo -CaM to apo -C a M .

[3] = Synchrotron radiation circular dichroism, alpha-helical content (Bestsel); assay type: physicochemical; conditions: 25 °C, far-UV SRCD; for alpha-helical content, TFE 20%: 20% TFE; for alpha-helical content, POPC:POPG 8:2: SUVs POPC:POPG 8:2 at 2 mM lipid; for alpha-helical content, Solution: buffer A
Experimental: Synchrotron Radiation Circular Dichroism
Synchrotron radiation circular dichroism (SRCD) was performed on the DISCO beamline of the synchrotron SOLEIL (Saint -Aubin, France) . Spectra were recorded at 25°C with an integration time of 1.2 s and a bandwidth of 1 nm with a resolution of 1 nm. A far-UV spectrum represents the average of four individual scans. QS cells (Hellma, France) with a pathlength of 20, 50, 100 or 200 μm (depending on final protein concentrations) were used to record spectra in the fa r -UV range (from 190 to 250 nm). CD spectra of peptides and proteins were measured in buffers A and B, 20% of trifluoroethanol (TFE), in the presence of SUVs (POPC :PO PG 8: 2) or Ca M. Secondary structure content was estimated using Bestsel software […]
Table S8: Estimation of the α -helical content of P454-derived peptides. The secondary structure content is estimated using the on-line Bestsel software 17 available at http://bestsel.elte.hu/index.php. […]
peptide in buffer A, in 20% TFE and in the presence of POPC POPG (molar ratio 8:2) at 2 mM lipid concentration. The far -UV CD spectra of several P454-derived peptides are shown […]

Ac-ASAHAGQRAAQGAQAVAAAQRLVHAIALMTQ-NH2 [P454 W458A-L463A]
Decrease of affinity for CaM relative to P454 (calmodulin (CaM); from Table S3): 4 fold | Kd (calmodulin (CaM)): 0.64 µM | ∆GKd for CaM (calmodulin (CaM)): -8.4 kcal/mol | Partition coefficient KX [1]: 22 ×10^3 | Kd [1]: 2550 µM | ∆GKx for POPC POPG 8:2 [1]: -5.9 kcal/mol | CP1/2, peptide concentration required to induce recovery of 50% of ANTS fluorescence intensity upon LUVs permeabilization [2]: 6.59 µM | alpha-helical content, TFE 20% [3]: 56% | alpha-helical content, POPC:POPG 8:2 [3]: 8 ± 2% | alpha-helical content, Solution [3]: 7 ± 1%

Ac-ASAHWGQRALQGAQAVAAAQRAVHAIALMTQ-NH2 [P454 L475A]
Kd (calmodulin (CaM)): 0.12 µM | ∆GKd for CaM (calmodulin (CaM)): -9.4 kcal/mol | Partition coefficient KX [1]: 350 ×10^3 | Kd [1]: 160 µM | ∆GKx for POPC POPG 8:2 [1]: -7.7 kcal/mol | CP1/2, peptide concentration required to induce recovery of 50% of ANTS fluorescence intensity upon LUVs permeabilization [2]: 0.64 µM | alpha-helical content, TFE 20% [3]: 45 ± 1% | alpha-helical content, POPC:POPG 8:2 [3]: 15 ± 1% | alpha-helical content, Solution [3]: 5 ± 2%

Ac-ASAHWGQQALQGAQAVAAAQQLVHAIALMTQ-NH2 [P454 R12Q]
Kd (calmodulin (CaM)): 2.09 µM | ∆GKd for CaM (calmodulin (CaM)): -7.7 kcal/mol | Partition coefficient KX [1]: 70 ×10^3 | Kd [1]: 790 µM | ∆GKx for POPC POPG 8:2 [1]: -6.6 kcal/mol | CP1/2, peptide concentration required to induce recovery of 50% of ANTS fluorescence intensity upon LUVs permeabilization [2]: 0.23 µM | alpha-helical content, TFE 20% [3]: 50 ± 2% | alpha-helical content, POPC:POPG 8:2 [3]: 23 ± 1% | alpha-helical content, Solution [3]: 8 ± 4%

Ac-ASAHWGQRAAQGAQAVAAAQRLVHAIALMTQ-NH2 [P454 L463A]
Kd (calmodulin (CaM)): 0.2 µM | ∆GKd for CaM (calmodulin (CaM)): -9.1 kcal/mol | Partition coefficient KX [1]: 630 ×10^3 | Kd [1]: 90 µM | ∆GKx for POPC POPG 8:2 [1]: -7.9 kcal/mol | CP1/2, peptide concentration required to induce recovery of 50% of ANTS fluorescence intensity upon LUVs permeabilization [2]: 0.41 µM | alpha-helical content, TFE 20% [3]: 48 ± 3% | alpha-helical content, POPC:POPG 8:2 [3]: 19 ± 2% | alpha-helical content, Solution [3]: 14 ± 2%
